These results are taken from PMC6317078 (Science (New York, N.Y.), 2018).

The assay concerns the target T1, zfDHHC15 (Danio rerio, UniProt F1QXD3, C153S).
T1 sequence (F1QXD3 1-332 C153S): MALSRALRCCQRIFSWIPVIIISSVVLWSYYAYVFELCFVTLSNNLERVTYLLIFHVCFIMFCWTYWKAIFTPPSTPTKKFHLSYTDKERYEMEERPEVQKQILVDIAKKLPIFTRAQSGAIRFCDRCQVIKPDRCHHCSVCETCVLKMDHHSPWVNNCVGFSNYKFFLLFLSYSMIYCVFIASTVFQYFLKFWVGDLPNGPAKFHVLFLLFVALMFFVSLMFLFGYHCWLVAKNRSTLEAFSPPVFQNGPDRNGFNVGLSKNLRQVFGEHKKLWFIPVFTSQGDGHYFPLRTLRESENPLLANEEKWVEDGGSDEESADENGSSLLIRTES
The assay can be described thus: X-ray crystal structure. The note with it: 2.54 Å; acyl-binding cavity; ligand modelled into density, not added.

Take `CCCCCCCCCCCCCCCC(=O)O` [palmitic acid]: the X-ray crystal structure entry is given as “continuous density in this cavity, which we modeled as a palmitic acid”.
